The target of the data set is SNHG14. The note with it: ASO.
Setting [1] is: Mouse Primary Neuronal Cell, 0.005 µM.

After the bases stand the sugars from the 5' end (letter, count) and the backbone: PS all phosphorothioate, else s phosphorothioate and o phosphodiester by linkage. Methylation of C is not given here. l = locked nucleic acid (LNA); d = 2'-deoxy (DNA)

Take CCAACATAGATCCTCT (sugars l2 d10 l4, PS): the target mRNA inhibition was 55% (Human Neuronal Cell, 0.2 µM) and 67% (Human Neuronal Cell, 1 µM).

TAAGCTCCATATTTAA (sugars l3 d10 l3, PS): the target mRNA inhibition came to 3% (Human Neuronal Cell, 0.2 µM) and 12% (Human Neuronal Cell, 1 µM). For “CACTGATTTCCTTAAAC (sugars l4 d11 l2, PS)”, in that order: 40% and 43%. As for “TACTCTGCAATACACCA (sugars ldlddddddddddldll, PS)”, the target mRNA inhibition (Human Neuronal Cell, 7.5 µM) was 64%.

Take “GCACATTCTTTCTATAC (sugars l1 d1 l3 d9 l3, PS)”: the target mRNA inhibition (Human Neuronal Cell, 7.5 µM) is 50%. Regarding “TGTTTATACCCTTTCCAA (sugars l2 d2 l1 d11 l2, PS)”, the target mRNA inhibition (Human Neuronal Cell, 7.5 µM) came to 64%. In the case of “CAACATTATTAACCACCTTA (sugars l1 d2 l2 d13 l2, PS)”, the target mRNA inhibition (Human Neuronal Cell, 7.5 µM) was 47%.

“ATTTACACTTAATTATACTT (sugars ldlllldddddddldlddll, PS)”: the target mRNA inhibition (Human Neuronal Cell, 7.5 µM) was found to be 45%. Consider “ACATGTCCCTTTATATT (sugars l2 d13 l2, PS)”, for which the target mRNA inhibition is -12% (Human Neuronal Cell, 0.2 µM); 8% (Human Neuronal Cell, 1 µM); 21% (Human Neuronal Cell, 5 µM); 85.2% under setting [1].

Take “TCTTCAGCTTTCTAAAT (sugars l4 d11 l2, PS)”: the target mRNA inhibition reads like this: (Human Neuronal Cell, 0.2 µM) 5%; (Human Neuronal Cell, 1 µM) 24%.

For “ATTGATTCAATTCCCTT (sugars l1 d1 l2 d9 l4, PS)”, the target mRNA inhibition (Human Neuronal Cell, 7.5 µM) is 67%. In the case of “TCCATTTATTTCCATTTATT (sugars ldlldddddddddlddddll, PS)”, where the note is “Human Neuronal Cell, 7.5 µM”, the target mRNA inhibition worked out at 46%. Take CTCTACAACAGTCCCA (sugars l3 d11 l2, PS): the target mRNA inhibition came to 53% (Human Neuronal Cell, 0.2 µM) and 51% (Human Neuronal Cell, 1 µM).

For AGCTCCATATTTAAAT (sugars l4 d10 l2, PS), the target mRNA inhibition (Human Neuronal Cell, 0.2 µM) is 10% and the target mRNA inhibition (Human Neuronal Cell, 1 µM) was -9%. Turning to “ATTGATTCAATTCCCTT (sugars lddldddddddlldlll, PS)”, the target mRNA inhibition (Human Neuronal Cell, 7.5 µM) was found to be 61%.

Take “TAAAATTATTTATACACCA (sugars lllldlddddddllddlll, PS)”: under “Human Neuronal Cell, 7.5 µM”, the target mRNA inhibition worked out at 31%. In the case of CATGACACTTACATAA (sugars l3 d10 l3, PS), the target mRNA inhibition by setting is: (Human Neuronal Cell, 0.2 µM) 31%; (Human Neuronal Cell, 1 µM) 45%. For CTAATGCAATAACCCA (sugars l2 d10 l4, PS), the target mRNA inhibition by setting is: (Human Neuronal Cell, 0.2 µM) 45%; (Human Neuronal Cell, 1 µM) 34%. Turning to “TTCTACTATACTTTCCTCT (sugars ldldddddddddddlddll, PS)”, the target mRNA inhibition (Human Neuronal Cell, 7.5 µM) was 59%. Consider “TCTTATCCTTGAATTTC (sugars l4 d11 l2, PS)”, for which the target mRNA inhibition reads like this: (Human Neuronal Cell, 0.2 µM) 37%; (Human Neuronal Cell, 1 µM) 33%. For TCCAACATAGATCCTC (sugars l2 d10 l4, PS), in that order: 52% and 65%.

Regarding “TTTATTTCCATTTATTTTCA (sugars lddddldddddddldlddll, PS)”, the target mRNA inhibition (Human Neuronal Cell, 7.5 µM) was determined as 46%. Consider “TAAAATTATTTATACACCA (sugars l3 d1 l2 d9 l4, PS)”, for which, under “Human Neuronal Cell, 7.5 µM”, the target mRNA inhibition was 59%.

For the sequence ACCTGTAATACTTCTT (sugars l4 d10 l2, PS), the target mRNA inhibition amounted to 48% (Human Neuronal Cell, 0.2 µM) and 46% (Human Neuronal Cell, 1 µM). “GATCATTCTCAACAATTAA (sugars lldlllddddddlllddll, PS)”: for the setting “Human Neuronal Cell, 7.5 µM”, the target mRNA inhibition is -2%. For the sequence “AAATTTCTCAACCTAAATTT (sugars l2 d14 l4, PS)”, the target mRNA inhibition was -9% (Human Neuronal Cell, 0.2 µM) and 2% (Human Neuronal Cell, 1 µM). TCTTTAAGCTTCCCAC (sugars l2 d10 l4, PS): the target mRNA inhibition runs as follows: (Human Neuronal Cell, 0.2 µM) 34%; (Human Neuronal Cell, 1 µM) 44%.

In the case of “TACACTTAATTATACTTCCA (sugars lddldllddddddddlddll, PS)”, the target mRNA inhibition (Human Neuronal Cell, 7.5 µM) was 56%. Take “TTTTTTCTTACTATCTTCAA (sugars ldddddldddddddllddll, PS)”: where the note is “Human Neuronal Cell, 7.5 µM”, the target mRNA inhibition turned out to be 43%.

As to “CCATTTATTTCCATTTATTT (sugars ldddldddddddddldldll, PS)”, under “Human Neuronal Cell, 7.5 µM”, the target mRNA inhibition amounted to 56%.

On to GAAACTATTACTCCTA (sugars l2 d10 l4, PS), for which the target mRNA inhibition is, setting by setting: (Human Neuronal Cell, 0.2 µM) 44%; (Human Neuronal Cell, 1 µM) 55%. For TACTCTGCAATACACC (sugars l2 d10 l4, PS) the same measures were 50% and 55%. Take “TTATTTCCATTTATTTTCA (sugars llddlddddddddldldll, PS)”: the target mRNA inhibition (Human Neuronal Cell, 7.5 µM) is 66%. In the case of “TAGTCCTTCCTTTAACC (sugars l2 d13 l2, PS)”, the target mRNA inhibition (Human Neuronal Cell, 0.2 µM) was 20% and the target mRNA inhibition (Human Neuronal Cell, 1 µM) worked out at 16%. Take “GTTCTACTATACTTTCCT (sugars l2 d1 l1 d12 l2, PS)”: the target mRNA inhibition (Human Neuronal Cell, 7.5 µM) came to 60%. “ACTGTTTATACCCTTTC (sugars l2 d10 l1 d2 l2, PS)”: the target mRNA inhibition (Human Neuronal Cell, 7.5 µM) amounted to 60%. Same read-out and setting: in the case of “TAAAATTATTTATACACCA (sugars lldlldddddddldldlll, PS)” it was 47%. For “CTTCACACCTATTATATA (sugars l2 d12 l4, PS)”, the target mRNA inhibition runs as follows: (Human Neuronal Cell, 0.2 µM) 7%; (Human Neuronal Cell, 1 µM) 32%. Regarding “TTCTACTATACTTTCCTCT (sugars lddddlddddddddlddll, PS)”, for the setting “Human Neuronal Cell, 7.5 µM”, the target mRNA inhibition came to 57%.

CTGCTTAATTATATCA (sugars l4 d10 l2, PS): the target mRNA inhibition reads like this: (Human Neuronal Cell, 0.2 µM) 35%; (Human Neuronal Cell, 1 µM) 38%. On to “AAGATCATTCTCAACAAT (sugars lllldlddddddldllll, PS)”, for which the target mRNA inhibition (Human Neuronal Cell, 7.5 µM) was -6%.

In the case of “GCTTTTAACCAGAGTGG (sugars l1 d12 l4, PS)”, where the note is “Human Neuronal Cell, 7.5 µM”, the target mRNA inhibition stood at 73%.

As for “TACATCTCATACTTGCT (sugars l2 d13 l2, PS)”, the target mRNA inhibition was 9% (Human Neuronal Cell, 0.2 µM); 23% (Human Neuronal Cell, 1 µM); -10% (Human Neuronal Cell, 5 µM); 84.5% under setting [1]. Regarding TACATCTCATACTTGC (sugars l3 d10 l3, PS), the target mRNA inhibition by setting is: (Human Neuronal Cell, 0.2 µM) 4%; (Human Neuronal Cell, 1 µM) -2%; (Human Neuronal Cell, 5 µM) 12%; under setting [1], 97.4%. For “TTATAGCCATTCTATCT (sugars lddllddddddldddll, PS)”, the target mRNA inhibition (Human Neuronal Cell, 7.5 µM) came to 50%. On to “TTATACCTTTCTTTAACCCT (sugars ldddddddddddddldldll, PS)”, for which the target mRNA inhibition (Human Neuronal Cell, 7.5 µM) was 58%.

Regarding “AATTTTTTTCTTACTATCTT (sugars ldllddddddddddllddll, PS)”, the target mRNA inhibition (Human Neuronal Cell, 7.5 µM) worked out at 44%. As to CTCCATATTTAAATCC (sugars l4 d10 l2, PS), the target mRNA inhibition was found to be 8% (Human Neuronal Cell, 0.2 µM) and 21% (Human Neuronal Cell, 1 µM). As to “TTTCCTATATTCTCTTA (sugars l4 d11 l2, PS)”, the target mRNA inhibition worked out at 56% (Human Neuronal Cell, 0.2 µM) and 64% (Human Neuronal Cell, 1 µM).

As to “AAAATCTCAACTACCATTTT (sugars l3 d11 l2 d1 l3, PS)”, the target mRNA inhibition (Human Neuronal Cell, 7.5 µM) turned out to be 12%.

In the case of “AAAATCTCAACTACCATTTT (sugars ldllddldddddddllddll, PS)”, the target mRNA inhibition (Human Neuronal Cell, 7.5 µM) was determined as 5%. Turning to “TTTTTTTCTTACTATCTTCA (sugars lldldddddddddlddddll, PS)”, the target mRNA inhibition (Human Neuronal Cell, 7.5 µM) was 49%. TATTGATATTTACTCT (sugars l2 d10 l4, PS): the target mRNA inhibition (Human Neuronal Cell, 0.2 µM) amounted to 30% and the target mRNA inhibition (Human Neuronal Cell, 1 µM) amounted to 38%.

Source of the values: the OligoGym collection.
